{
  "source": "patent US20180110803A1",
  "about": "“Neutral Electrolyzed Water and Uses Thereof” (priority 2016, published 2018)",
  "tested_on": "Wistar rats",
  "test": "formalin model of inflammatory pain",
  "assay_type": "in vivo",
  "conditions": "100 mg/paw subcutaneous, 5 minutes before formalin",
  "data": [
    {"smiles": "O=C(c1ccccc1)c1ccc2n1CCC2C(=O)O", "note": "(stereo not shown) [Ketorolac, ketorolac]", "values": [
      {"measurement": "reduction of inflammatory pain (nociceptive response)", "value": "~50", "unit": "%"}
    ]}
  ]
}
